Results taken from patent publication US8586603B2, “Aminotetraline derivatives” (priority 2009, dated 2013).
Several values for one entry are separate records, joined by “and”; a condition that tells them apart may be missing. Equal values may be shown once. Read-outs that look alike come from different tables or passages of the source.

How the values were obtained:
[1] = biological target: T1, porcine cortical p5-HT2 serotonin receptor (Sus scrofa, UniProt P50129); assay: Receptor binding assay, [3H]ketanserin competition, porcine cortical membranes; details: for Ki: means of 2-8 individual experiments each done as triplicate; for selectivity ratio p5-HT2: vs p5-HT1a
T1 construct: membrane homogenates prepared from porcine striatal or cortical tissue; from tissue; host or cells: porcine cortex
T1 sequence (P50129 whole entry): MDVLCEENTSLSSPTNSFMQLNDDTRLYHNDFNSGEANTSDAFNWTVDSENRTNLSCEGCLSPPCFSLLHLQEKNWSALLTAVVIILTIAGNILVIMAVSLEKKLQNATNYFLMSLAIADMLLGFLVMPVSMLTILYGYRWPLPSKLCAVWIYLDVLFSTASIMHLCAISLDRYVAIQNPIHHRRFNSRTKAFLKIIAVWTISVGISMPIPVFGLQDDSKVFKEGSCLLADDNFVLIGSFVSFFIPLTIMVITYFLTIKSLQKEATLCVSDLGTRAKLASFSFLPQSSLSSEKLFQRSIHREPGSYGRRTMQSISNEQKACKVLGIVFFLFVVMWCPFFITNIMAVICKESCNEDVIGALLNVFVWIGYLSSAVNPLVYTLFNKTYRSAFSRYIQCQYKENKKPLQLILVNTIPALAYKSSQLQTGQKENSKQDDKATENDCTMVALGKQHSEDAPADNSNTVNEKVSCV

[2] = biological target: T2, porcine cortical p5-HT1a serotonin receptor (Sus scrofa, UniProt A0A4X1UTF5); assay: Receptor binding assay, [3H]WAY100635 competition, porcine cortical membranes; details: for Ki: means of 2-8 individual experiments each done as triplicate; for selectivity ratio p5-HT1a: reference receptor of the ratio (=1)
T2 construct: membrane homogenates prepared from porcine striatal or cortical tissue; from tissue; host or cells: porcine cortex
T2 sequence (A0A4X1UTF5 1-422): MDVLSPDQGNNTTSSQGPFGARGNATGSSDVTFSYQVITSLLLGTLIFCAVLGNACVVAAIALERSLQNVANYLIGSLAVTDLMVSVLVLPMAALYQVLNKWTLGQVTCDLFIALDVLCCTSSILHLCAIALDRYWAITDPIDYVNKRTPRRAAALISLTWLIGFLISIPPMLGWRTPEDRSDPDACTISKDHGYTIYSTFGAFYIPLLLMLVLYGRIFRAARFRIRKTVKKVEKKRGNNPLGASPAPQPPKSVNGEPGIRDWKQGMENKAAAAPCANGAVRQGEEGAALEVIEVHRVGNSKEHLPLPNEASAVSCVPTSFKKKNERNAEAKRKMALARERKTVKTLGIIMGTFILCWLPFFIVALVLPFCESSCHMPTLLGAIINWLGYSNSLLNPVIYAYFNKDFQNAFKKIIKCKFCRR

[3] = biological target: T3, porcine cortical pα1 adrenergic receptor; assay: Receptor binding assay, [3H]prazosin competition, porcine cortical membranes; details: means of 2-8 individual experiments each done as triplicate
T3 construct: Ki pα1; other: means of 2-8 individual experiments each done as triplicate

[4] = test system: porcine cortical pα1 adrenergic receptor; assay: as above; details: vs p5-HT1a
[5] = biological target: T4, human dopamine receptor subtype hD4.4 (Homo sapiens, UniProt P21917); assay: Receptor binding assay, [3H]spiperone competition, CHO cell membranes; details: for Ki: means of 2-8 individual experiments each done as triplicate; for selectivity ratio hD4.4: vs p5-HT1a
T4 construct: expressed in transfected cells; host or cells: CHO
T4 sequence (P21917 1-419): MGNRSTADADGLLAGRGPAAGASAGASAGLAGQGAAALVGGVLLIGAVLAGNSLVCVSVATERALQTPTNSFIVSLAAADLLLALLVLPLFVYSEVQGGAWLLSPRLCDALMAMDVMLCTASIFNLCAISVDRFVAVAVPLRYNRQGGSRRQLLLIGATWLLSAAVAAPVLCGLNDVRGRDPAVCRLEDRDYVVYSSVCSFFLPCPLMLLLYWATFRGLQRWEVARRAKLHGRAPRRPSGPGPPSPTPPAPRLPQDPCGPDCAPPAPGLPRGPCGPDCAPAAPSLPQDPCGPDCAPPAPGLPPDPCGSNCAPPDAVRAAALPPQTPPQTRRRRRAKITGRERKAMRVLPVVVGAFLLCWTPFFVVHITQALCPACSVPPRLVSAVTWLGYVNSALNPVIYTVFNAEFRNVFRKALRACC
Experimental: Receptor binding data were determined when performing competition binding assays with membrane preparations of cloned cells (stably transfected Chinese Hamster Ovary cells (CHO)) expressing the human receptors and the following radioligands: [^3H]spiperone at the human dopamine receptor subtypes hD2long, hD2short, D3, and hD4.4. […].
(§1) Selectivity ratios were calculated by division of the Ki values of the various compounds at the respective receptors through the Ki values at the 5HT1a receptor.

[6] = biological target: porcine cortical pα2 adrenergic receptor; assay: Receptor binding assay, [3H]RX821002 competition, porcine cortical membranes; details: means of 2-8 individual experiments each done as triplicate
[7] = biological target: T5, porcine striatal pD1 dopamine receptor (Sus scrofa, UniProt P50130); assay: Receptor binding assay, [3H]SCH 23390 competition, porcine striatal membranes; details: for Ki: means of 2-8 individual experiments each done as triplicate; for selectivity ratio pD1: vs p5-HT1a
T5 construct: membrane homogenates prepared from porcine striatal or cortical tissue; from tissue; host or cells: porcine striatum
T5 sequence (P50130 whole entry): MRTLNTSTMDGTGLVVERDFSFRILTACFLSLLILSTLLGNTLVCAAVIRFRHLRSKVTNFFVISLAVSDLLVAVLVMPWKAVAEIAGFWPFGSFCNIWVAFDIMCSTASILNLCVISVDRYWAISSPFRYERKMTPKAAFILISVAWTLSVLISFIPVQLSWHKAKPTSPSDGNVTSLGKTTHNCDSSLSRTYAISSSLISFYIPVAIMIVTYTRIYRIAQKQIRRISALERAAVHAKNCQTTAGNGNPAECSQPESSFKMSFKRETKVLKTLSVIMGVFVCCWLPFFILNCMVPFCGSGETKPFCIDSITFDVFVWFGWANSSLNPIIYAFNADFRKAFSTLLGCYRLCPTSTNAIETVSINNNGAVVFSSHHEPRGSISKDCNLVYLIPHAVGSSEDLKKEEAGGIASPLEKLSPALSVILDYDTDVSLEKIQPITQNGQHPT

human 5-HT1a receptor = biological target: T6, human 5-HT1a receptor (Homo sapiens, UniProt P08908); assay: [35S]GTPγS functional assay; assay type: biochemical; details: for Emax: read-out: intrinsic activity [% rel. to serotonin]
T6 construct: expressed in transfected cells
T6 sequence (P08908 1-422): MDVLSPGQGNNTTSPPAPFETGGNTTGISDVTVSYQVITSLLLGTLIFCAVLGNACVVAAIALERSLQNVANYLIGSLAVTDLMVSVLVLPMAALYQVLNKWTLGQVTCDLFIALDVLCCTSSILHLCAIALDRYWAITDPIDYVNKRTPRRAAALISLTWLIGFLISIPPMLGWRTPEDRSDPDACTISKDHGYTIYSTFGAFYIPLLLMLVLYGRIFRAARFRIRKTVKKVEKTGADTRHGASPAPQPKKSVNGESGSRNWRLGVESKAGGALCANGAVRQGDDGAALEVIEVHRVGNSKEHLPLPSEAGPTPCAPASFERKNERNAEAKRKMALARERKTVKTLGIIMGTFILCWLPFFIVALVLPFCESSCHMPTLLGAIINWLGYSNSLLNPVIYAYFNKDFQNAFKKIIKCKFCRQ
Experimental: Specific binding of [^35S]GTPγS is stimulated by activation of the stably expressed human 5-HT1a receptor in a dose-dependent way by agonists for this GPCR and is determined by measuring the radioactive label of the membrane. Non-linear regression analysis of the resulting dose-response curves yields the EC50 value in [nM] representing the half maximal concentration which is necessary to activate the receptor completely.

[8] = biological target: T7, human dopamine receptor subtype hD2long (Homo sapiens, UniProt P14416); assay: Receptor binding assay, [3H]spiperone competition, CHO cell membranes; details: for Ki: means of 2-8 individual experiments each done as triplicate; for selectivity ratio hD2long: vs p5-HT1a
T7 construct: expressed in transfected cells; host or cells: CHO
T7 sequence (P14416 whole entry): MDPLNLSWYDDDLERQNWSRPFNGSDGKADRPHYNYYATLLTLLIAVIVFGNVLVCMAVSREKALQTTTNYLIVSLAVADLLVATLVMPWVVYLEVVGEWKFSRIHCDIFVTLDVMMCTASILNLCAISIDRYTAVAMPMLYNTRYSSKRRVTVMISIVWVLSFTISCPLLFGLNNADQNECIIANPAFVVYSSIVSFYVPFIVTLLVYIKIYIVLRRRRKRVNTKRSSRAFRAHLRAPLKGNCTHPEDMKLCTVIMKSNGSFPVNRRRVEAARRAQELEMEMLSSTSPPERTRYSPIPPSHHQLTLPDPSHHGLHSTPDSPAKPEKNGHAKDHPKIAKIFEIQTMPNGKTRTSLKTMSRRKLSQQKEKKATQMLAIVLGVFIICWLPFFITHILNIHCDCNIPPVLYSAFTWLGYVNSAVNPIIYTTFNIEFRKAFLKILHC
Experimental: (§2) Receptor binding data were determined when performing competition binding assays with membrane preparations of cloned cells (stably transfected Chinese Hamster Ovary cells (CHO)) expressing the human receptors and the following radioligands: [^3H]spiperone at the human dopamine receptor subtypes hD2long, hD2short, D3, and hD4.4.
as §1

[9] = biological target: T8, human dopamine receptor subtype hD3 (Homo sapiens, UniProt P35462); assay: as above; details: for Ki: means of 2-8 individual experiments each done as triplicate; for selectivity ratio hD3: vs p5-HT1a
T8 construct: expressed in transfected cells; host or cells: CHO
T8 sequence (P35462 whole entry): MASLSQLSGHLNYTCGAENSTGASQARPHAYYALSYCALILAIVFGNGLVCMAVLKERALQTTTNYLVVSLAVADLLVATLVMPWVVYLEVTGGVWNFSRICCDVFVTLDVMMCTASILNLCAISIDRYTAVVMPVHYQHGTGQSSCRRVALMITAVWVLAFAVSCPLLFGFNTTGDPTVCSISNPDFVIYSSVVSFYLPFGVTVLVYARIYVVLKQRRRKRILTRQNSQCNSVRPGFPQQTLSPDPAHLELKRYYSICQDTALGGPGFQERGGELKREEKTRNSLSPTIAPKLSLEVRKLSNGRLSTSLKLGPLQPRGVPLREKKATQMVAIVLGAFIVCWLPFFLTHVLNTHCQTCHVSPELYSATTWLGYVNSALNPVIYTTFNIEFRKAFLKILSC
Experimental: as §2, §1

[10] = biological target: T9, human dopamine receptor subtype hD2short (Homo sapiens, UniProt P14416); assay: as above; details: for Ki: means of 2-8 individual experiments each done as triplicate; for selectivity ratio hD2short: vs p5-HT1a
T9 construct: expressed in transfected cells; host or cells: CHO
T9 sequence (P14416 1-414 isoform P14416-2): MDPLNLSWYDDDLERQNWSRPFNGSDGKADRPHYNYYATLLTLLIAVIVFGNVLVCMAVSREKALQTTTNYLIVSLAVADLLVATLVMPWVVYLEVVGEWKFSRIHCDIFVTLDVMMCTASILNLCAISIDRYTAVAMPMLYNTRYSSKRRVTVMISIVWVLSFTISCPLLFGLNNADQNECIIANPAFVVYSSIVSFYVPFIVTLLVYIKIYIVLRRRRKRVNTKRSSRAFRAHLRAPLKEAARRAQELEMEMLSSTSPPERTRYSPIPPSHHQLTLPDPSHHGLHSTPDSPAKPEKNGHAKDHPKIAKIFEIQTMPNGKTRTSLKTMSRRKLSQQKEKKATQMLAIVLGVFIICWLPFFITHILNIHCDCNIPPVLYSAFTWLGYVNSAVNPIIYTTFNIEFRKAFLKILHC
Experimental: as §2, §1

[11] = mean values of 2-8 individual experiments

Row | Ki [6] [µM] | Molecule | Ki [1] [µM] | selectivity ratio p5-HT2 [1] | Ki [2] [µM] | selectivity ratio p5-HT1a [2] | Ki [3] [µM] | selectivity ratio pα1 [4] | Ki [5] [µM] | selectivity ratio hD4.4 [5] | Ki [7] [µM] | selectivity ratio pD1 [7] | EC50 (human 5-HT1a receptor; [11]) | Emax (human 5-HT1a receptor) [%] | Ki [8] [µM] | selectivity ratio hD2long [8] | Ki [9] [µM] | selectivity ratio hD3 [9] | Ki [10] [µM] | selectivity ratio hD2short [10] | other results
1 | 0.064 | CCCN(CCc1cccs1)[C@@H]1CCc2cccc(OC)c2C1 [Compound 2a, (R)—N-(8-Methoxytetralin-2-yl)-N-propyl-N-[2-(2-thienyl)ethyl]amine] | 6 | – | 0.0073 | – | 0.14 | – | 0.88 | – | 5.2 | – | 0.0011 µM | 82 | 0.75 | – | 0.23 | – | 0.84 | – | –
2 | 0.06 | CCCN(CCc1ccccc1)C1CCc2cccc(OC)c2C1 (stereo not drawn) [Compound 4, N-(8-Methoxytetralin-2-yl)-N-(2-phenylethyl)-N-propylamine] | 4.2 | – | 0.0025 | – | 0.19 | – | 0.53 | – | 7.3 | – | – | – | 0.33 | – | 0.051 | – | 0.23 | – | –
3 | – | CCCN(CCc1cc(C)ccc1C)C1CCc2cccc(O)c2C1 (stereo not drawn) [Compound 7, N-[2-(2,5-Dimethylphenyl)ethyl]-N-(8-hydroxytetralin-2-yl)-N-propylamine] | 1.7 | 1 000 | 0.0017 | 1 | 0.078 | 46 | 0.49 | 290 | 2.4 | 1 400 | – | – | 0.14 | 82 | 0.13 | 76 | 0.09 | 53 | melting point: 102 °C
4 | – | N-(2-Adamantylethyl)-N-(8-hydroxytetralin-2-yl)-N-propylamine [Compound 9] | 1.6 | 1600 | 0.0035 | 1 | 0.57 | 160 | 0.35 | 100 | 2.6 | 740 | – | – | 0.016 | 4.6 | 0.039 | 11 | 0.012 | 3.4 | EC50 (human 5-HT1a receptor): 0.0019 µM; intrinsic activity [% rel. to serotonin] (human 5-HT1a receptor; [35S]GTPγS incorporation relative to serotonin (=100%)): 88%

Row | Molecule | Ki [6] [µM] | Ki [1] [µM] | selectivity ratio p5-HT2 [1] | Ki [2] [µM] | selectivity ratio p5-HT1a [2] | Ki [3] [µM] | selectivity ratio pα1 [4] | Ki [5] [µM] | selectivity ratio hD4.4 [5] | Ki [7] [µM] | selectivity ratio pD1 [7] | EC50 (human 5-HT1a receptor; [11]) | Emax (human 5-HT1a receptor) [%] | Ki [8] [µM] | selectivity ratio hD2long [8] | Ki [9] [µM] | selectivity ratio hD3 [9] | Ki [10] [µM] | selectivity ratio hD2short [10] | other results
5 | CCCN(CCc1cccs1)[C@@H]1CCc2cccc(O)c2C1 [Compound 1a, (R)—N-(8-Hydroxytetralin-2-yl)-N-propyl-N-[2-(2-thienyl)ethyl]amine] | 0.056 | 2.5 | 4 800 | 0.00052 | 1 | 0.64 | 1 200 | 0.1 | 190 | 8.8 | 17 000 | 0.00065 to 0.0019 µM and 0.00065 µM | 103 | 0.24 | 460 | 0.1 | 190 | 0.26 | 500 | agonist activity at the human 5-HT1a receptor (human 5-HT1a receptor; in words): full agonist activity
